Data taken from patent US6992083B2, “Benzoxazol derivatives” (Hoffman-La Roche Inc., priority 2003, dated 2006).

Assays:
[1] = biological target: T1, human adenosine A2A receptor (Homo sapiens, UniProt P29274); experiment: [3H]-SCH-58261 binding assay, human adenosine A2A receptor; conditions: recombinant receptor in CHO cell membranes, [3H]-SCH-58261 1 nM, Ki by Cheng-Prussoff; read-out: hA2a pKi (converted)
T1 construct: expressed in transfected cells; host or cells: CHO cells, Semliki Forest virus expression system; washed membrane preparation
Description: Human Adenosine A2A Receptor
The human adenosine A2A receptor was recombinantly expressed in Chinese hamster ovary (CHO) cells using the semliki forest virus expression system. Cells were harvested, washed twice by centrifugation, homogenised and again washed by centrifugation. The final washed membrane pellet was suspended in a Tris (50 mM) buffer containing 120 mM NaCl, 5 mM KCl, 2 mM CaCl2 and 10 mM MgCl2 (pH 7.4) (buffer A). The [^3H]-SCH-58261 (Dionisotti et al., 1997, Br J Pharmacol 121, 353; 1 nM) binding assay was carried out in 96-well plates in the presence of 2.5 μg of membrane protein, 0.5 mg of Ysi-poly-1-lysine SPA beads and 0.1 U adenosine deaminase in a final volume of 200 μl of buffer A. Non-specific binding was defined using xanthine amine congener (XAC; 2 μM). Compounds were tested at 10 concentrations from 10 μM–0.3 nM. All assays were conducted in duplicate and repeated at least two times. Assay plates were incubated for 1 hour at room temperature before centrifugation and then bound ligand determined using a Packard Topcount scintillation counter. IC50 values were calculated using a non-linear curve fitting program and Ki values calculated using the Cheng-Prussoff equation.

hA1 = biological target: T2, hA1 (Homo sapiens, UniProt P30542); experiment: selectivity to the A1 receptor; type: binding; conditions: selectivity of A2a affinity versus hA1
T2 sequence (P30542 1-326): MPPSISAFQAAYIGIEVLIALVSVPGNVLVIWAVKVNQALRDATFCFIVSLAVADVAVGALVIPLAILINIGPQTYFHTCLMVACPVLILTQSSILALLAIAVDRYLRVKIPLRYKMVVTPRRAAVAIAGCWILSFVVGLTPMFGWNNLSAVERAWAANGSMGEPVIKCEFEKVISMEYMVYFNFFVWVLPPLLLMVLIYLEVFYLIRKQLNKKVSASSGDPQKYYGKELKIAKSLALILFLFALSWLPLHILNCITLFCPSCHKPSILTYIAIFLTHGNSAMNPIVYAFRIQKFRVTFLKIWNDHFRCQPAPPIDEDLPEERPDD

T1 sequence (P29274 whole entry): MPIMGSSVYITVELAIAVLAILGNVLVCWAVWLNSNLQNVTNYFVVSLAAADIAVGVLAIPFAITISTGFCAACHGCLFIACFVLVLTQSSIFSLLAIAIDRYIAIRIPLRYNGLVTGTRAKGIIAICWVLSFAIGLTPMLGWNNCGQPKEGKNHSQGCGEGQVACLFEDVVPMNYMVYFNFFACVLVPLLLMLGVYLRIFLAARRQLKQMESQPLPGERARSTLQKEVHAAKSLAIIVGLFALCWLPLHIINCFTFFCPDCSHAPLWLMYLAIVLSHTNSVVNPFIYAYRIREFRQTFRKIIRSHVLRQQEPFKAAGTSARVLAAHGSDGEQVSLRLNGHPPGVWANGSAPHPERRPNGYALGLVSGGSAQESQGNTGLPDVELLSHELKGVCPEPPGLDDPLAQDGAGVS

Row | Structure (SMILES) | Ki [1] [nM] | selectivity to hA1 (hA1)
1 | COc1ccc(-c2ccccc2)c2oc(NC(=O)c3ccc(F)cc3)nc12 [Example 1, 4-Fluoro-N-(4-methoxy-7-phenyl-benzooxazol-2-yl)-benzamide] | 12 | 26
2 | COCCN(C)Cc1ccc(C(=O)Nc2nc3c(OC)ccc(-c4ccccc4)c3o2)cc1 [Example 2, 4-{[(2-Methoxy-ethyl)-methyl-amino]-methyl}-N-(4-methoxy-7-phenyl-benzooxazol-2-yl)-benzamide] | 22.4 | 137
3 | COc1ccc(C2CCOCC2)c2oc(NC(=O)c3ccc(F)cc3)nc12 [Example 5, 4-Fluoro-N-[4-methoxy-7-(tetrahydro-pyran-4-yl)-benzooxazol-2-yl]-benzamide] | 21.9 | 140
4 | COc1ccc(C2CCOCC2)c2oc(NC(=O)c3ccnc(N4CCOCC4)c3)nc12 [Example 9, N-[4-Methoxy-7-(tetrahydro-pyran-4-yl)-benzooxazol-2-yl]-2-morpholin-4-yl-isonicotinamide] | 21.9 | 351
5 | COc1ccc(-c2ccc(F)cc2)c2oc(NC(=O)c3ccnc(CCl)c3)nc12 [Example 13, 2-Chloromethyl-N-[7-(4-fluoro-phenyl)-4-methoxy-benzooxazol-2-yl]-isonicotinamide] | 22.9 | 227
6 | COc1ccc(-c2ccc(F)cc2)c2oc(NC(=O)c3ccnc(C)c3)nc12 [Example 14, N-[7-(4-Fluoro-phenyl)-4-methoxy-benzooxazol-2-yl]-2-methyl-isonicotinamide] | 15.8 | 134
7 | COc1ccc(-c2ccc(F)cc2)c2oc(NC(=O)c3ccc(C)nc3)nc12 [Example 17, N-[7-(4-Fluoro-phenyl)-4-methoxy-benzooxazol-2-yl]-6-methyl-nicotinamide] | 12.9 | 242
8 | COc1ccc(-c2ccc(F)cc2)c2oc(NC(=O)c3ccc(F)cc3)nc12 [Example 18, 4-Fluoro-N-[7-(4-fluoro-phenyl)-4-methoxy-benzooxazol-2-yl]-benzamide] | 6.46 | 120
9 | COc1ccc(-c2ccc(F)cc2)c2oc(NC(=O)c3ccnc(N4CCOCC4)c3)nc12 [Example 20, N-[7-(4-Fluoro-phenyl)-4-methoxy-benzooxazol-2-yl]-2-morpholin-4-yl-isonicotinamide] | 8.51 | 650
10 | COCc1cc(C(=O)Nc2nc3c(OC)ccc(-c4ccc(F)cc4)c3o2)ccn1 [Example 21, N-[7-(4-Fluoro-phenyl)-4-methoxy-benzooxazol-2-yl]-2-methoxymethyl-isonicotinamide] | 30.2 | 96
